Laboratory results taken from patent US9757375B2, “Compounds that inhibit human DNA ligases and methods of treating cancer” (University of Maryland, Baltimore, priority 2007, dated 2017).

Tests used:
HeLa cell extract = assay: Cell extract assay of short patch base excision repair (incised AP site); type: biochemical, human; conditions: 100 μmol/L (also 25 μM in the source), FIG. 4B
Experimental: Extracts were prepared from human cervical cancer HeLa cells as described previously (27, 31). For base excision repair (BER) assays, the extraction buffer contained 100 mmol/L of KCl, whereas for nonhomologous end-joining (NHEJ) assays, extraction buffer contained 400 mmol/L of KCl. Where indicated, DNA ligases were immunodepleted from the extracts as described (32) using protein A or G Sepharose beads (GE Healthcare) and anti-Lig1, anti-LigIII (GeneTex), or anti-LigIV (ABCAM) antibodies. Depletion was confirmed by immunoblotting.
A labeled 5′-flap substrate (0.1 pmol; (31)) was incubated with 20 μg of extract in the absence or presence of ligase inhibitors (100 μmol/L) at 25° C. for 5 min in ligation buffer (final volume, 50 μL). For short patch BER, a linear duplex containing a single uracil residue was preincised by treatment with uracil DNA glycosylase and APE1 (both from NEB) to generate a strand break with 3′ hydroxyl and 5′ deoxyribose phosphate termini. Reactions (50 μL) containing 0.3 pmol of the incised DNA substrate, 10 μCi of [α^32P]dTTP, and 20 μg of extract either in the absence or presence of ligase inhibitors (100 μmol/L) were incubated at 25° C. for 2 min in ligation buffer. After separation by denaturing polyacrylamide gel electrophoresis, labeled oligonucleotides were detected in the dried gel by phosphorImager analysis (Molecular Dynamics).
A natural AP site within a linear DNA molecule (FIG. 4B) is repaired primarily by short patch base excision repair that is completed by DNA ligase 111 (15). FIG. 4B, the linear DNA substrate with an incised AP site (0.3 pmol) was incubated with a cell extract (20 μg) and [a32P]dTTP in the absence (lane 1, Mock) or presence of 100 μmol/L of L189 (lane 2), L67 (lane 3), or L82 (lane 4). hLigI (lane 5, I-dp) and hLigIIIα (lane 6, III-dp) were immunodepleted from the cell extracts prior to incubation with the DNA substrate. […] After separation by denaturing gel electrophoresis, labeled fragments corresponding to a single nucleotide insertion and fully repaired product were detected by phosphorimaging (16). […]

MCF10A cells [1] = assay: Screen for potentiation of DNA damaging agents (MMS, camptothecin, cis-platinum, 3 aminobenzamide, ionizing radiation); type: cell-based, human; conditions: for MMS: Ratios of IC50 MCF10A: compound alone vs combination with MMS (100 μM); for MMS: Ratios of IC50 MCF10A / IC50 ratios of non- and 3-AB treated cells MCF10A: 1 = no sensitization; for Radiosensitizers: IC50 ratios MCF10A: ionizing radiation; for % growth inhibition MCF10A [2 Gy] 5-15 uM: with 2 Gy ionizing radiation, tick mark only; for IC50 ratios of non- and 3-AB treated cells MCF10A: compound alone vs combination with 3-AB (2 mM)
Procedure, shortened: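 HCT116 colon cancer and MCF10A breast epithelial cells received compounds at 15 μM or 50 μM one day after plating; for ionizing radiation, cells were pre-incubated 1 h with 50 μM compound before 2 Gy. After 3 days, cells were lysed with Igepal CA-630 plus SYBR green, and DNA fluorescence served as the proliferation read-out.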

HCT116 cells = assay: Colony forming (survival) assay; type: cell-based, human; conditions: for potentiation of killing by ionizing radiation: HCT116, 2 gray
Experimental: (§1) For survival assays, cells were plated in 6 well plates and grown either in the absence or presence of ligase inhibitors. Where indicated, either MMS (0-50 μM) was added to the medium or the cells were irradiated in a Cs-137 irradiator (0-2.5 Gy). After two weeks, colonies were stained with crystal violet (Sigma) and then counted.
(§2) To confirm that the DNA ligase inhibitors directly kill cells and potentiate cell killing by DNA damaging agents, we performed colony forming assays.
(§3) Different concentrations of Compound 184 were added to asynchronous subconfluent populations of HCT116, MCF7 and MCF10A cells. Colonies were counted after two weeks. (FIG. 6A).
(§4) Different concentrations of Compound 151 were added to asynchronous subconfluent populations of HCT116 and MCF10A cells in the absence or presence of MMS (50 μM). Colonies were counted after two weeks. (FIG. 6B).
(§5) Different concentrations of Compound 189 were added to asynchronous subconfluent populations of HCT116 and MCF10A cells. After 1 hour, cultures were irradiated with 2 gray of ionizing radiation. Colonies were counted after two weeks. (FIG. 6C).
(§6) Different concentrations of Compound 67 were added to asynchronous subconfluent populations of HCT116, MCF7 and MCF10A cells. After 1 hour, cultures were irradiated with 2 gray of ionizing radiation. Different concentrations of Compound 67 were added to asynchronous subconfluent populations of HCT116 and MCF10A cells in the absence or presence of MMS (50 μM). Colonies were counted after two weeks. (FIG. 6D).

MCF10A cells [2] = assay: Colony forming (survival) assay; type: cell-based, human; conditions: colonies after two weeks; for effect on MMS cytotoxicity: MMS 50 μM
Experimental: as §1, §2, §3, §4, §5, §6

SMILES	repair of the natural AP site (short patch base excision repair) (HeLa cell extract)	MMS: Ratios of IC50 MCF10A (MCF10A cells [1])	effect on MMS cytotoxicity (MCF10A cells [2])	IC50 ratios of non- and 3-AB treated cells MCF10A (MCF10A cells [1])	also measured
O=c1[nH]ncc(N/N=C\c2ccc(O)c([N+](=O)[O-])c2)c1Cl [Compound 82]	has no effect	–	–	–	–
O=C(Cn1cnc([N+](=O)[O-])n1)N/N=C/c1ccc(O)cc1O [Compound 151]	–	1.8	no significant effect	–	Radiosensitizers: IC50 ratios MCF10A (MCF10A cells [1]): 1; % growth inhibition MCF10A [2 Gy] 5-15 uM (MCF10A cells [1]): ✓; potentiation of killing by MMS (HCT116 cells; HCT116, MMS 50 μM, colonies after two weeks): markedly potentiates
O=C(c1ccc(O)cc1)c1ccccc1O [Compound 200]	–	ID (1)	–	ID (1.2)	–
Nc1nc(S)nc(O)c1/N=C/c1ccccc1 [Compound 189]	reduce repair of the natural AP site	–	no significant effect	–	potentiation of killing by ionizing radiation (HCT116 cells; colonies after two weeks): markedly potentiates
O=C1Nc2ccccc2Oc2cc([N+](=O)[O-])cc([N+](=O)[O-])c21 [Compound 180]	–	1	–	–	–
CS(=O)(=O)NNC(=O)C(=O)NNc1ccccc1 [Compound 184]	–	–	–	–	cell killing (colony formation) (HCT116 cells; HCT116, compound alone, compared with MCF10A, FIG. 6A): more effective at killing; cell killing (colony formation) (MCF10A cells [2]; compound alone, FIG. 6A): kills
O=C(O)CSc1cc(Cl)c2nonc2c1[N+](=O)[O-] [Compound 64]	–	–	–	2	Radiosensitizers: IC50 ratios MCF10A (MCF10A cells [1]): 1.2
Cc1c(Br)cc(NCC(=O)N/N=C\c2cc([N+](=O)[O-])ccc2O)cc1Br [Compound 67]	reduce repair of the natural AP site	1.2	no significant effect	1.7	% growth inhibition MCF10A [2 Gy] 5-15 uM (MCF10A cells [1]): ✓; potentiation of killing by ionizing radiation (HCT116 cells; colonies after two weeks): potentiates; effect on ionizing radiation-induced cytotoxicity (MCF10A cells [2]; 2 gray): no significant effect
